Data reported in patent EP4744657A1, “THERAPEUTIC AGENT FOR HUMAN GRAFT VERSUS HOST DISEASE AND COMBINATION THEREOF” (National University Corporation Okayama University, priority 2023, dated 2025).
Values joined by “and” are separate entries in the source; they are usually repeats but may differ in a detail not shown here. Equal entries are not always repeated.

Experiments:
[1] = system: chronic graft versus host disease (chronic GVHD); experiment: Clinical study of efficacy and safety of tamibarotene for chronic GVHD (Examples 1 and 2); assay type: in vivo, human; settings: for Eyeball: subjects with improvement in Schirmer's test: out of the 18 subjects; for subjects for whom the overall judgment was PR: oral, start 4 mg per day, with PSL/steroid
Protocol: Tamibarotene was administered to a patient with chronic graft versus host disease (chronic GVHD) after allogeneic hematopoietic stem cell transplantation, and efficacy thereof was studied. Main selection criteria for subjects are as follows: • (A) An age is 18 years or older and younger than 85 years • (B) A Karnofsky performance status (KPS) is 60 or more • (C) A steroid treatment-refractory or steroid treatment-dependent patient who has started treatment with 0.5 mg/kg or more of PSL (prednisolone) (or received corresponding steroid treatment) as a first-line treatment, and who falls under any of the following (1) through (4): • (1) A patient who needs additional treatment because of exacerbation even after 1 mg/kg or more of PSL has been administered for 2 weeks; • (2) A patient who has not been ameliorated after 4 weeks of treatment, including administration of 0.5 mg/kg or more of PSL for 2 weeks, and needs additional treatment. • (3) A patient whose GVHD symptom has relapsed or worsened within a period in which the dose of the steroid was reduced • (4) A steroid treatment-dependent patient for whom a dose reduction from 10 mg/day (or corresponding steroid treatment) is difficult Tamibarotene was administered to 18 subjects. As the administration method, 2 mg tablets of tamibarotene were administered orally for 24 weeks. The administration was started with 2 doses (a 2 mg tablet, twice) after breakfast and dinner, i.e., 4 mg (equivalent to 3 mg/m^2) per day. PSL or steroid administration was also continued daily. 2 mg tablets of tamibarotene were administered orally for 24 weeks. Administration was started at 4 mg (equivalent to 3 mg/m^2) per day, i.e., twice daily after breakfast and dinner (one 2 mg tablet in each of the morning and evening). If an adverse event was mild (grade 0 to 1), the dose could be increased to 8 mg per day (two 2 mg tablets in each of the morning and evening) after 4 weeks of continuation (in a case of 6 mg per day, two 2 mg tablets were to be taken after breakfast and one 2 mg tablet after dinner). In a case of grade 2 for an unexpected adverse event (for which a causal relationship could not be ruled out), or grade 3 for an expected adverse event (for which a causal relationship could not be ruled out), the dose was reduced to 2 mg per day (one tablet once after breakfast), and administration was continued. Alternatively, after a 2-week drug holiday, administration was restarted at 2 mg per day and continued, after confirming that the adverse event had improved to a grade one level lower than that before the drug holiday. However, in regard to an abnormal liver function of grade 3, in a case of a patient who had grade 3 liver dysfunction due to chronic GVHD from before enrollment, administration could be continued without dose reduction or drug holiday, even if the abnormal liver function remained at grade 3. In a case where drug holidays and restarts were repeated with administration at 2 mg per day due to an adverse event, administration could be continued by reducing the dose to 2 mg on alternate days. The survival rate without treatment failure (death, relapse, implementation of additional treatment) at the end of tamibarotene administration (week 24), i.e., failure-free survival (FFS), was evaluated. In a case where additional treatment was implemented for chronic GVHD, such a case was considered treatment failure at that point in time. In regard to the additional treatment herein, a change in the steroid dose was not considered, but in a case where the dose was increased to an amount exceeding 1 mg/kg/day, it was considered that additional treatment had been implemented. [Table 1] For the skin, eyeball, and gastrointestinal tract, the NIH organ-specific scores described in Biol. Blood Marrow Transplant, 2005 11(12), 945-56 were used. For the skin, a therapeutic effect was further evaluated using a total skin score. In addition, the 15-point Schubert scale in Table 2 was used for the oral cavity. […]

[2] = Plasma concentration of active ingredient in patients, measured by HPLC (Example 3); assay type: in vivo, human
Protocol: To a total of 11 patients, a single dose of 2.0 mg, 4.0 mg, or 6.0 mg of tamibarotene was administered.
Moreover, to a total of 6 patients, repeated doses of 8.0 mg or 10.0 mg of tamibarotene were administered.
For the 2.0 mg dose, one tablet (2 mg of tamibarotene) was administered after breakfast using a tablet of 2 mg tamibarotene; for the 4.0 mg dose, one tablet (2 mg of tamibarotene) was administered after breakfast and one tablet (2 mg of tamibarotene) was administered after dinner; and for the 6.0 mg dose, two tablets (4 mg of tamibarotene) were administered after breakfast and one tablet (2 mg of tamibarotene) was administered after dinner.
For the 8.0 mg dose, two tablets (4 mg of tamibarotene) after breakfast and two tablets (4 mg of tamibarotene) after dinner were administered repeatedly for 35 to 46 days, using a tablet of 2 mg tamibarotene. For the 10.0 mg dose, three tablets (6 mg of tamibarotene) after breakfast and two tablets (4 mg of tamibarotene) after dinner were administered repeatedly for 34 to 59 days, using a tablet of 2 mg tamibarotene. […]

[3] = week 12 of administration, 18 subjects
[4] = week 24, out of the 16 subjects
[5] = week 24 of administration, 5/18
[6] = week 24 of administration, 18 subjects

SMILES: CC1(C)CCC(C)(C)c2cc(NC(=O)c3ccc(C(=O)O)cc3)ccc21 [tamibarotene, 4-[(5,6,7,8-tetrahydro-5,5,8,8-tetramethyl-2-naphthalenyl)carbamoyl]benzoic acid]
- follow-up of single subjects whose overall judgment was PR ([1]; 2 years after the end of treatment, one subject per line): able to discontinue the administration of PSL and reduce the dose of FK506 at 2 years after the end of treatment without exacerbation of chronic GVHD
- knee joint flexion ([1]; Case 1, start vs end of administration, 200 days, Fig. 1): notable improvement in knee joint flexion
- knee joint extension ([1]; Case 1, start vs end of administration, 200 days, tamibarotene/prednisolone/tacrolimus 4 mg/15 mg/4 mg at start, Fig. 1): notable improvement in knee joint extension
- cutis symptom on knee ([1]; Case 2, start vs end of administration, 137 days, Fig. 2): notable amelioration of pigmentation and skin sclerosis in the knee
- cutis symptom on lower part of back ([1]; Case 2, start vs end of administration, 137 days, tamibarotene/predonine/tacrolimus 4 mg/11 mg/0.2 mg at start, Fig. 2): amelioration of pigmentation and skin sclerosis in the lower part of the lower back
- oral cavity symptom ([1]; Case 3, start vs end of administration, 83 days, tamibarotene/prednisolone/tacrolimus 4 mg/10 mg/0.6 mg, Fig. 3): healing of ulcer and notable amelioration of erythema were seen in the oral cavity
- response rate for each organ (Fig. 4), in words ([1]; all cases in Example 1): the effect was seen in chronic GVHD of the eyeball and liver in addition to the skin and the oral cavity, or chronic GVHD maintained without exacerbation
- overall response rate ([1]; entire administered population, final analysis, NIH Consensus Development Project Criteria (2005), 6/18, 95% confidence interval 13.3% to 59.0%): 33.3%
- overall response rate based on the NIH Consensus Development Project Criteria (2014) ([1]; entire administered population, sensitivity analysis, 7/18 cases, 95% confidence interval 17.3% to 64.3%): 38.9%
- NIH response rate for the joints and fascia ([1]; human, in vivo): 11%
- response rate for the lung function score ([1]; human, in vivo): unchanged
- NIH response rate for the liver ([1]; influence of other diseases difficult to consider): 23%
- Eyeball: subjects with improvement in Schirmer's test ([1]; left eye): 7 subjects
- NIH response rate for the gastrointestinal tract ([1]; n=5): 20%
- NIH response rate for the genitals ([1]; n=6): 17%
- amelioration in the symptom after administration ([1]; patients in Examples, no amelioration before with various drugs): amelioration in the symptom was seen in all the patients
- Eyeball: subjects with improvement in Schirmer's test ([1]; right eye): 5 subjects
- Oral cavity: symptoms ([1]; several subjects): healing of ulcer and notable amelioration of erythema were seen in several subjects
- Skin: symptoms ([1]; several subjects): notable amelioration of edema, skin sclerosis, pigmentation, or erythema in several subjects
- range of joint motion ([1]; subjects in whom a therapeutic effect was confirmed): notable improvement in the range of joint motion
- subjects for whom the overall judgment was SD [1, 3]: 7 subjects
- subjects for whom the overall judgment was PR [1, 3]: 5 subjects
- subjects in whom the dose of PSL could be reduced by 50% or more ([1]; week 24, compared with start of tamibarotene administration, 18 subjects): 3 subjects
- subjects in whom the dose of PSL could be reduced ([1]; week 24, compared with start of treatment, 18 subjects): 7 subjects
- Eyeball: NIH response rate ([1]; week 24, 14 subjects): 14%
- Eyeball: subjects evaluated as CR ([1]; week 24, 14 subjects): No subject
- Eyeball: subjects evaluated as PR ([1]; week 24, 14 subjects): two
- Oral cavity: NIH response rate ([1]; week 24, 16 subjects): 25%
- Oral cavity: subjects evaluated as CR ([1]; week 24, 16 subjects): Two
- Oral cavity: subjects evaluated as PR ([1]; week 24, 16 subjects): two
- Skin: NIH response rate ([1]; week 24, 16 subjects): 25%
- Skin: subjects evaluated as CR ([1]; week 24, 16 subjects): One
- Skin: subjects evaluated as PR ([1]; week 24, 16 subjects): three
- Oral cavity: subjects with improved score on the 15-point Schubert scale [1, 4]: 10 subjects
- Skin: subjects with improved total skin score [1, 4]: 8 subjects
- failure-free survival (FFS) [1, 5]: 28%
- response rate [1, 5]: 28%
- subjects for whom the overall judgment was SD [1, 6]: 7 subjects
- subjects for whom the overall judgment was PR [1, 6]: 5 subjects
- Plasma concentration ([2]; after 8 hours from a single dose of 2.0 mg, lowest concentration list, 480 min): 3.26 ng/mL
- Plasma concentration ([2]; after 10 hours from a single dose of 4.0 mg, lowest concentration list, 600 min): 8.03 ng/mL and 7.01 ng/mL
- Plasma concentration ([2]; after 24 hours from single dose of 6.0 mg, individual values, lowest concentration list, 1440 min): 1.08 ng/mL and 1.14 ng/mL and 2.50 ng/mL
- Plasma concentration ([2]; after hours (figure not given) from repeated doses (46 days) of 8.0 mg, highest concentration list): 100.09 ng/mL
- concentration at 4 h ([2]; human, plasma, po, 2 mg, after 4 hours from a single dose of 2.0 mg, lowest concentration list): 8.98 ng/mL
- concentration at 8 h ([2]; human, plasma, po, 2 mg, after 8 hours from a single dose of 2.0 mg, lowest concentration list): 5.04 ng/mL
- concentration at 10 h ([2]; human, plasma, po, 4 mg, after 10 hours from a single dose of 4.0 mg, lowest concentration list): 9.56 ng/mL
- concentration at 4 h ([2]; human, plasma, po, 6 mg, after 4 hours from a single dose of 6.0 mg, highest concentration list): 80.2 ng/mL
- concentration at 4 h ([2]; human, plasma, po, 6 mg, after 4 hours from repeated doses (47 days) of 6.0 mg, highest concentration list): 92.5 ng/mL
- concentration at 6 h ([2]; human, plasma, po, 6 mg, after 6 hours from a single dose of 6.0 mg, lowest concentration list): 7.42 ng/mL
- concentration at 10 h ([2]; human, plasma, po, 6 mg, after 10 hours from a single dose of 6.0 mg, lowest concentration list): 7.72 ng/mL
- concentration at 4 h ([2]; human, plasma, po, 8 mg, after 4 hours from repeated doses (35 days) of 8.0 mg, highest concentration list): 84.6 ng/mL
- concentration at 4 h ([2]; human, plasma, po, 8 mg, after 4 hours from repeated doses (46 days) of 8.0 mg, highest concentration list): 85.2 ng/mL
- concentration at 24 h ([2]; human, plasma, po, 8 mg, after 24 hours from repeated doses (46 days) of 8.0 mg, lowest concentration list): 2.92 ng/mL
- concentration at 2 h ([2]; human, plasma, po, 10 mg, after 2 hours from repeated doses (34 days) of 10.0 mg, highest concentration list): 88 ng/mL
- concentration at 2 h ([2]; human, plasma, po, 10 mg, after 2 hours from repeated doses (58 days) of 10.0 mg, highest concentration list): 199 ng/mL
- concentration at 2 h ([2]; human, plasma, po, 10 mg, after 2 hours from repeated doses (59 days) of 10.0 mg, highest concentration list): 119 ng/mL
- concentration at 4 h ([2]; human, plasma, po, 10 mg, after 4 hours from repeated doses (34 days) of 10.0 mg, highest concentration list): 85.6 ng/mL
- concentration at 4 h ([2]; human, plasma, po, 10 mg, after 4 hours from repeated doses (36 days) of 10.0 mg, highest concentration list): 161 ng/mL
- concentration at 4 h ([2]; human, plasma, po, 10 mg, after 4 hours from repeated doses (58 days) of 10.0 mg, highest concentration list): 88.7 ng/mL
- concentration at 4 h ([2]; human, plasma, po, 10 mg, after 4 hours from repeated doses (59 days) of 10.0 mg, highest concentration list): 82.1 ng/mL
- concentration at 8 h ([2]; human, plasma, po, 10 mg, after 8 hours from repeated doses (36 days) of 10.0 mg, highest concentration list): 112 ng/mL
